What was measured:
[1] = test system: human lung carcinoma A549 cells; assay: Label-free Epic biosensor DMR assay in A549 cells; type: cell-based; conditions: 10 micromolar, ultra-high confluent cells, 2 hrs in low CO2 (~2%) (FIG. 12B)
Procedure: 169. Cells were typically grown using ˜1 to 2×10^4 cells per well at passage 3 to 15 suspended in 50 μl of the corresponding culture medium in the biosensor microplate, and were cultured at 37° C. under air/5% CO2 for ˜1 day. Except for A431 which was subject to ˜20 hr starvation through continuously culture in the serum-free DMEM, the other cell types were directly assayed without starvation. The confluency for all cells at the time of assays was ˜95% to 100%.
177. Epic® wavelength interrogation system (Corning Inc., Corning, N.Y.) was used for whole cell sensing. This system consists of a temperature-control unit, an optical detection unit, and an on-board liquid handling unit with robotics. The detection unit is centered on integrated fiber optics, and enables kinetic measures of cellular responses with a time interval of ˜15 sec. The compound solutions were introduced by using the on-board liquid handling unit (i.e., pippetting).
190. Although we used A431 cells as a model, the disclosed methods are also applicable to other types.
191. To characterize the polypharmacology including PDE4 inhibitory activity of compounds, we used the known EGFR inhibitor tyrphostin 51 as an example. […] Next, one or more specific DMR parameters were chosen as a readout for plotting the DMR index of the molecule.

quiescent A431 cells = assay: DMR modulation index against panel of markers in quiescent A431 cells; type: cell-based, human
Text: 191. To characterize the polypharmacology including PDE4 inhibitory activity of compounds, we used the known EGFR inhibitor tyrphostin 51 as an example. Quiescent A431 and proliferating A549 cells were separately exposed to tyrphostin 51 at 10 micromolar for about 1 hr to generate its primary profiles, followed by stimulation with each marker at a fixed concentration for another 1 hr or so to generate secondary profiles of the tyrphostin 51 against the panels of markers in both types of cells. Next, one or more specific DMR parameters were chosen as a readout for plotting the DMR index of the molecule.
192. The first panel of markers was contacted with quiescent A431 cells at concentrations close to each of the marker's EC80 or EC100, and DMR measurements were obtained with and EPIC® system. This panel of markers was selected from a library of markers identified in A431 cells using Epic® cellular assays. This panel included epidermal growth factor (EGF), epinephrine, nicotinic acid, and histamine. Each of these markers leads to a wide array of cell signaling. Using Epic® cellular assays in conjunction with chemical biology and cell biology approach similar to the EGFR DMR mentioned above, we have determined the pathway(s) and network interaction(s) that is accounted for each marker-induced DMR signal in A431 cells. The main observations are summarized below. Epidermal growth factor is a natural agonist for endogenous EGF receptor in A431 whose activation leads to a divergent array of cell signaling, including PLC-PI3K pathway, MAPK pathway, STAT pathway, and PKC pathway. Epinephrine is a natural agonist for endogenous beat2-adrenergic receptor in A431 cells, whose activation leads to cAMP-PKA pathway. Nicotinic acid is a natural agonist for endogenous GPR109A receptor in A431, whose activation leads to Gi-mediated signaling and MAPK pathway. Histamine is a natural agonist for endogenous histamine type 1 receptor (H1R) in A431, whose activation leads to Gq-mediated signaling and PKC pathway. […] Each DMR signal represents an averaged response of 4 replicates.
194. For the pinacidil DMR response in A549, the amplitude of the N-DMR (i.e., the amplitude 30 min after stimulation) was chosen. For the poly(I:C) DMR response in A549, the amplitude of the late DMR (i.e., the amplitude 50 min after stimulation) was chosen. For the PMA response in A549, the late DMR amplitude (i.e., the amplitude 50 min after stimulation) was chosen. For the SLIGKV-amide DMR response in A549, the P-DMR amplitude (i.e., the amplitude 20 min after stimulation) was chosen. For the forskolin response in A549 cells, the P-DMR amplitude (i.e., the amplitude 50 min after stimulation) was chosen. For the histamine response in A549, both the early DMR amplitude (i.e., amplitude 10 min after stimulation) and the late response (i.e., the amplitude 30 min after stimulation) were chosen. For the epinephrine response in A431, the P-DMR amplitude (i.e., the amplitude 50 min after stimulation) was chosen. For the nicotinic acid DMR in A431, the P-DMR amplitude (i.e., the amplitude 3 min after stimulation) was chosen. For the EGF DMR in A431, both the P-DMR (i.e., the amplitude 4 min after stimulation) and N-DMR amplitudes (i.e., the decaying amplitude between 4 min and 40 min after simulation) were chosen. For the histamine response in A431, the P-DMR amplitude (i.e., the amplitude 3 min after stimulation) was chosen. The percentage of modulation of the marker against each marker was calculated by normalizing the secondary profile of the molecule against the marker in the cell to the primary profile of the same marker acting on the same cell.

[2] = quiescent A431, 10 micromolar pretreatment ~1 hr

N#CC(C#N)=C(N)/C(C#N)=C/c1cc(O)c(O)c(O)c1 [tyrphostin 51]
primary DMR profile [1]: closely resembled the classic Gs-DMR signals | effect of pretreatment on EGF induced DMR signal (quiescent A431 cells; A431, FIG. 12C): attenuation | effect of pretreatment on epinephrine DMR signal (quiescent A431 cells; A431, FIG. 12C): partially attenuated | effect of pretreatment on histamine DMR signal (quiescent A431 cells; A431, FIG. 12C): partially attenuated | modulation of EGF N-DMR (decaying amplitude 4 to 40 min) (quiescent A431 cells; [2]): −5% | modulation of EGF P-DMR (amplitude 4 min) (quiescent A431 cells; [2]): −36% | modulation of epinephrine DMR (P-DMR amplitude 50 min) (quiescent A431 cells; [2]): −68% | modulation of histamine DMR (P-DMR amplitude 3 min) (quiescent A431 cells; [2]): −16% | modulation of nicotinic acid DMR (P-DMR amplitude 3 min) (quiescent A431 cells; [2]): +4%

— patent publication US20110020843A1, “LABEL-FREE METHODS RELATED TO PHOSPHODIESTERASES” (priority 2009, published 2011)
